From PMC12238850, “Molecular determinants for recognition of serotonylated chromatin” (Nucleic Acids Research, 2025) come the findings set out here.

Holding throughout (assay type): binding
Test [1] deals with T1, TAF3 WT (GST-tagged Taf3-PHD, residues 857–924) (Mus musculus, UniProt Q5HZG4).
T1 construct: Mus musculus Taf3-PHD domain (residues 857–924); made in house; host or cells: E. coli BL21(DE3)
T1 sequence (Q5HZG4 857-924): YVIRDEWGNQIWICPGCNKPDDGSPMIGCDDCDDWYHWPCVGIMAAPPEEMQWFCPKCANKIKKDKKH
Nature of the test: ITC of GST-tagged Taf3-PHD wild type. The source says: (§1) The coding sequences of Mus musculus Taf3-PHD domain (residues 857–924) and Homosapiens PHF2 (1–66), PHF8 (37–102), and BPTF(2) (2865–2921) were cloned into the pGEX2T-derived vector, pRP265NB, for bacterial expression of GST-tagged proteins. Note that the PHD fingers of M. musculus Taf3 and H. sapiens TAF3 differ in a single amino acid. A901 in mouse corresponds to T899 in human. Here, amino acid numbering corresponds to mouse Taf3 isoform 1 with UniProt ID: Q5HZG4, accessible at https://www.uniprot.org/uniprotkb/Q5HZG4/entry. Single or double mutations were introduced by mutagenesis polymerase chain reaction and validated by Sanger sequencing. A single colony of freshly transformed BL21(DE3) Escherichia coli bacteria with the corresponding construct was grown in Luria broth (LB) medium supplemented with 50 μg/ml ampicillin until an OD600 of 0.7. […]
(§2) ITC experiments were performed at 20°C with a MicroCal VP-ITC microcalorimeter (Malvern) by sequential injection of 10 μl at 300 μM histone peptide during 20 s into the sample cell containing 30 or 15 μM of GST-Taf3 (wild type or mutant) or GST-BPTF, GST-PHF2, and GST-PHF8 PHDs in ITC buffer (100 mM NaCl, 20 mM Tris–HCl, pH 7.5). […] ITC data were subsequently analysed and fitted with the one-site binding model in the MicroCal ITC Origin Analysis software 7.0 (Table 1, Figs 3B and 5A, Supplementary Table S3, and Supplementary Fig. S10). […]

Test [2] addresses T2, TAF3 A902L (GST-tagged PHD) (Mus musculus, UniProt Q5HZG4, A902L).
T2 construct: Mus musculus Taf3-PHD domain (residues 857–924); made in house; host or cells: E. coli BL21(DE3)
T2 sequence (Q5HZG4 857-924 A902L): T1 sequence (Q5HZG4 857-924) with A46L
Nature of the test: ITC of GST-tagged Taf3-PHD A902L.
Source text: as §1, §2

In test [3] the target is T3, TAF3 S880A (GST-tagged PHD) (Mus musculus, UniProt Q5HZG4, S880A).
T3 construct: Mus musculus Taf3-PHD domain (residues 857–924); made in house; host or cells: E. coli BL21(DE3)
T3 sequence (Q5HZG4 857-924 S880A): T1 sequence (Q5HZG4 857-924) with S24A
As to the kind of experiment: ITC of GST-tagged Taf3-PHD S880A.
Source text: as §1, §2

Test [4] addresses T4, TAF3 P881E (GST-tagged PHD) (Mus musculus, UniProt Q5HZG4, P881E).
T4 construct: Mus musculus Taf3-PHD domain (residues 857–924); made in house; host or cells: E. coli BL21(DE3)
T4 sequence (Q5HZG4 857-924 P881E): T1 sequence (Q5HZG4 857-924) with P25E
Nature of the test: ITC of GST-tagged Taf3-PHD P881E.
Source text: as §1, §2

Test [5] concerns the target T5, PHF8 PHD (37–102, GST-tagged) (Homo sapiens, UniProt Q9UPP1).
T5 construct: PHF8 (37–102); made in house; host or cells: E. coli BL21(DE3)
T5 sequence (Q9UPP1 37-102): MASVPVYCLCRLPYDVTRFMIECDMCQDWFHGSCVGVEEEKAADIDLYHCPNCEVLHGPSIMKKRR
Nature of the test: ITC of GST-tagged PHF8 PHD.
Source text: as §1, §2

[6] abbreviates: ITC, 20°C, 100 mM NaCl, 20 mM Tris–HCl, pH 7.5, one-site model, ± = standard error of fit, read-out: K D.

Residue numbers refer to the chain shown, from its start. Read-outs that look alike come from different tables or passages of the source.

Take `C[C@H](N)C(=O)N[C@@H](CCCNC(=N)N)C(=O)N[C@H](C(=O)N[C@@H](CCCC[N+](C)(C)C)C(=O)N[C@@H](CCC(N)=O)C(=O)N[C@H](C(=O)N[C@@H](C)C(=O)N[C@@H](CCCNC(=N)N)C(=O)N[C@@H](CCCCN)C(=O)N[C@@H](CO)C(=O)N[C@H](C(=O)NCC(N)=O)[C@@H](C)O)[C@@H](C)O)[C@@H](C)O` [H3K4me3]: the Kd in test [1] (ITC, 20°C, 100 mM NaCl, 20 mM Tris–HCl, pH 7.5, 300 μM peptide into 30 or 15 μM GST-PHD, one-site model, ± = standard error of fit, representative experiment, read-out: K D) amounted to 260 ± 16 nM; in test [2] (setting [6]) it was 166 ± 17 nM; in test [3] (setting [6]) it was 207 ± 34 nM; in test [4] (setting [6]), 148 ± 4 nM; in test [5] (setting [6]) it was 418 ± 20 nM.

As to `C[C@H](N)C(=O)N[C@@H](CCCNC(=N)N)C(=O)N[C@H](C(=O)N[C@@H](CCCC[N+](C)(C)C)C(=O)N[C@@H](CCC(=O)NCCc1c[nH]c2ccc(O)cc12)C(=O)N[C@H](C(=O)N[C@@H](C)C(=O)N[C@@H](CCCNC(=N)N)C(=O)N[C@@H](CCCCN)C(=O)N[C@@H](CO)C(=O)N[C@H](C(=O)NCC(N)=O)[C@@H](C)O)[C@@H](C)O)[C@@H](C)O` [H3K4me3Q5ser], the Kd in test [1] was 98 ± 8 nM; in test [2], 51 ± 3 nM; in test [3], 65 ± 5 nM; in test [4] it was 136 ± 4 nM; in test [5], 275 ± 19 nM.
